Test [1] deals with Paper wasps (mainly Polistes dominulus, plus a few of P. aurifer). The test is described as follows: Field trapping, Rescue W•H•Y traps baited with attractant AA/2MB: captures of paper wasps. The settings on record: N 9. The class given is in vivo. As to the method:
(§1) Eleven field trapping experiments were carried out from late August to mid-October 2009 in residential and woody areas around Spokane, Wash., USA, mostly using the trap known by the designation Rescue® W•H•Y (except on one occasion that Rescue® Reusable Yellowjacket Traps were used for a natural food attractant; see below for details). The commercial W•H•Y trap has a top chamber and a bottom chamber and is described in U.S. Patent Application Publication No. 2009/0151228. The top chamber is baited with two attractants—one of which is a solid contained in a vial (2-methyl-1-butanol), and the other is a liquid mixed with water (acetic acid). The bottom chamber is baited with a liquid attractant (heptyl butyrate) poured onto a cotton pad. Separation of the two types of attractants (otherwise antagonistic to each other when released from the same chamber) in two chambers creates two focal attraction sources from one trap for different species of wasps, hornets, and yellowjackets. […] In a special occasion, the commercial Rescue® Reusable Yellowjacket Traps were each baited with 10 g of chopped bacon (loaded into a cartridge) as a natural protein food attractant. Traps were hung 1.5-2.0 m above the ground on either fences or tree branches ca. 5 m apart between each trap and at least 15 m between sets. For each trapping experiment, three sets of traps (i.e., three physical replicates of each treatment) were deployed with their initial trap positions within each set being randomized. To minimize positional effects and obtain more replications, wasp collections and trap re-randomization were carried out when 5-10 wasps were caught in the best traps. Each replicate lasted several days depending on wasp flight activity. Captured wasps were removed from the traps and kept in the zip-bags before returning to the laboratory for recording of the species, gender status, and catch. Repellent candidates (individuals or mixtures) were released from polyethylene bags (3×5 cm; with a fabric felt) with various thicknesses from 2-12 mil (see release rates listed in tables); they were employed inside the same trap chamber as the attractant.
(§2) Experiment 1 tested five individual essential oils (pennyroyal, lemongrass, peppermint, clove, and citronella) and two known mosquito repellents (i.e., major components of catnip oil), E/Z-nepetalactone and Z/E-nepetalactone plus a blank control against a mixture of attractant [acetic acid (AA) and 2-methyl-1-butanol (2 MB)] using the W•H•Y traps (both attractant and repellent candidates were released from the top chamber) from for eight consecutive days from August to early September. Experiment 2 tested nine individual essential oils (ylang ylang, vetiver, myrrh, patchouli, geranium, eucalyptus, camphor, spearmint, and wintergreen) plus a blank control against a mixture of attractant (AA+2 MB) using the W•H•Y traps (both attractant and repellent candidates were released from the top chamber) for eight consecutive days from late August to early September. Experiment 3 tested seven individual essential oils (Roman chamomile, sage, fennel seed, rosemary, thyme, anise, and lavender) plus a blank control against a mixture of attractant (AA+2 MB) using the W•H•Y traps (both attractant and repellent candidates were released from the top chamber) for eight consecutive days from late August to early September. Experiment 4 tested two essential oil mixtures (3EO-mix: clove, geranium, and lemongrass in ca. 1:1:1 ratio; and 4EO-mix: clove, geranium, lemongrass, and rosemary in ca. 1:1:1:1 ratio) plus a blank control against a mixture of attractant (AA+2 MB) using the W•H•Y traps (both attractant and repellent candidates were released from the top chamber) for 13 consecutive days in September; the essential oil mixtures alone without attractant were tested in the same experiment.

In test [2] the test system is worker antennae of Vespula pensylvanica, Dolichovespula maculata, Polistes dominulus, and P. aurifer. Kind of test: GC-EAD/MS analysis of SPME headspace samples of essential oils: antennal responses. The conditions noted are these: for antennal (EAD) response to component of rosemary oil: V. pensylvanica and D. maculata antennae, FIG. 3. As to the method: Headspace volatiles from greater than 10 types of essential oils (1 ml each in a closed 20 ml glass vial) were sampled via Solid-Phase Micro-Extraction (SPME) (CAR/PDMS, 85 μm, Supelco, Bellefonte, Pa.) for 20-30 sec before GC-EAD and GC-MS analyses.
Paper wasp [European paper wasp (Polistes dominulus) or golden paper wasp (P. aurifer)] and yellowjacket [Western yellowjacket (Vespula pensylvanica) or Bald-faced hornet (Dolichovespula maculata)] workers for electrophysiological study were collected from their nests and kept alive at 4° C. before testing.
SPME samples of the various essential oils were injected splitless into a Varian CP-3800 GC equipped with a polar column (HP-INNOWAX; 30 m×0.53 mm×1.0 μm film thickness; Agilent Technologies, Wilmington, Del., USA) and a 1:1 effluent splitter that allowed simultaneous flame ionization detection (FID) and electroantennographic detection (EAD) of either a yellowjacket or paper wasp worker antenna to the separated volatile compounds. Helium was used as the carrier gas, and the injector and detector temperatures were 250° C. and 300° C., respectively. Column temperature was 50° C. for 1 min, rising to 240° C. at 10° C./min, and then held for 10 min. The outlet for the EAD was held in a humidified air stream flowing at 0.5 m/sec over the antennal preparation. EAD recordings were made using silver wire-glass capillary electrodes filled with Beadle-Ephrussi Ringer on freshly cut antennae. The antennal signals were stored and analyzed on a PC equipped with a serial IDAC interface box and the program EAD ver. 2.5 (Syntech, Hilversum, The Netherlands).
Compounds were identified by comparison of retention times with those of authentic standards and with mass spectra of standards.

Test [3] deals with vespid wasps (paper wasps, hornets and yellowjackets). Kind of test: Field trapping experiments, repellency stated for vespid wasps as a whole (yellowjackets and paper wasps; summaries). The class given is in vivo, Vespula pensylvanica; Polistes dominulus. The settings on record: for activity at doses tested: Experiment 9; for repellency on either yellowjackets or paper wasps or both to the attractant AA/2 MB: Experiments 1-3, late August to early September. As to the method:
as §1, §2

The subject of test [4] is Yellowjackets (mainly Vespula pensylvanica (ca. 90%), plus V. vulgaris, V. germanica, and Dolichovespula maculata). Kind of test: Field trapping, Rescue W•H•Y traps baited with attractant AA/2MB: captures of yellowjackets. The class given is in vivo. The settings on record: N 9. As to the method: as §1, §2
Setting [5] is: Table 10, Experiment 11, attractant AA/2MB alone (row AA/2MB) or plus chemical, 16 days in October.
Setting [6] is: V. pensylvanica and P. dominulus worker antennae.
The mark [7] stands for this setting: Table 8, Experiment 9, attractant AA/2MB alone (row AA/2MB) or plus chemical, 13 days in September.
Setting [8] is: Table 9, Experiment 10, attractant AA/2MB alone (row AA/2MB) or plus chemical, 18 days end of September through mid-October.
Setting [9] is: V. pensylvanica, D. maculata, P. dominulus, or P. aurifer antennae.
Where [10] appears, read: Table 1, Experiment 1, attractant AA/2MB alone (row AA/2MB) or plus essential oil/chemical in same trap chamber, eight days late August to early September.

The values below come from patent publication US20120107428A1, “REPELLENTS FOR PESTIFEROUS SOCIAL WASPS” (Sterling International Inc., priority 2010, published 2012).

Consider `COc1ccc(C)cc1` [4-Methylanisole, 4-methylanisole], for which, in test [1] (setting [5]), the “Mean/trap/visit ± SE Paper wasps” value is 0.9 ± 0.5 a wasps/trap/visit. In addition, the “antennal (EAD) response to component of ylang ylang oil” value in test [2] (setting [6]) was “strong and repeatable antennal responses”. For the same molecule, the “repellency to either yellowjackets or paper wasps” value in test [3] (Experiment 11, AA/2 MB, at 90 mg/day release) is recorded as “did not show significant repellency”. The “Mean/trap/visit ± SE Yellowjackets” value in test [4] (setting [5]) was 10.0 ± 5.0 b wasps/trap/visit.

As to `CC1=CCC(O)(C(C)C)CC1` (centres unmarked) [4-Terpineol, 4-terpineol], in test [1] (setting [7]), the “Mean/trap/visit ± SE Paper wasps” value is 2.0 ± 0.7 ab wasps/trap/visit. In addition, in test [2], the “antennal (EAD) response to component of rosemary oil” value is recorded as “significant EAD-responses”. Besides, in test [3] (AA/2 MB), the “activity at doses tested” value is “inactive”. Further, the “Mean/trap/visit ± SE Yellowjackets” value in test [4] (setting [7]) came to 23.3 ± 5.6 b wasps/trap/visit.

As to `CC1=CC(=O)[C@H]2C[C@@H]1C2(C)C` [(−)-Verbenone, (−)-verbenone], in test [1] (setting [7]), the “Mean/trap/visit ± SE Paper wasps” value was found to be 2.9 ± 0.9 ab wasps/trap/visit. Moreover, the “activity at doses tested” value in test [3] (AA/2 MB) is “inactive”. Besides, the “Mean/trap/visit ± SE Yellowjackets” value in test [4] (setting [7]) worked out at 18.7 ± 5.9 b wasps/trap/visit.

Consider `CC(C)=CCC/C(C)=C/CO` [Geraniol, geraniol], for which the “Mean/trap/visit ± SE Paper wasps” value in test [1] (setting [8]) is reported as 2.9 ± 0.9 b wasps/trap/visit. For the same molecule, in test [2] (setting [9]), the “antennal (EAD) response to component of geranium oil” value was “significant and consistent EAD-responses”. Further, in test [3] (Experiment 10, AA/2 MB), the “repellency at the dose tested” value is “not different from the attractant alone”. Besides, in test [4] (setting [8]), the “Mean/trap/visit ± SE Yellowjackets” value was determined as 21.8 ± 6.0 cd wasps/trap/visit.

Take `C=C(C)[C@H]1CC=C(C)C(=O)C1` [d-Carvone, d-carvone]: in test [1] (setting [8]), the “Mean/trap/visit ± SE Paper wasps” value came to 0.9 ± 0.5 a wasps/trap/visit. The “antennal (EAD) response to component of spearmint oil” value in test [2] (setting [9]) is “significant and consistent EAD-responses”. In addition, in test [4] (setting [8]), the “Mean/trap/visit ± SE Yellowjackets” value worked out at 4.9 ± 2.2 ab wasps/trap/visit.

Consider `CC1=CCC(C(C)(C)O)CC1` (stereo not drawn) [α-Terpineol, α-terpineol], for which the “Mean/trap/visit ± SE Paper wasps” value in test [1] (setting [7]) is given as 2.2 ± 0.9 ab wasps/trap/visit. The “antennal (EAD) response to component of rosemary oil” value in test [2] was “significant EAD-responses”. In test [3] (AA/2 MB), the “activity at doses tested” value is “inactive”. For the same molecule, the “Mean/trap/visit ± SE Yellowjackets” value in test [4] (setting [7]) came out at 21.9 ± 5.7 b wasps/trap/visit.

With `CC(C)=CCCC(C)CCO` (stereo not drawn) [β-Citronellol, β-citronellol], the “Mean/trap/visit ± SE Paper wasps” value in test [1] (setting [7]) was 5.1 ± 1.6 b wasps/trap/visit. For the same molecule, in test [2] (setting [9]), the “antennal (EAD) response to component of geranium oil” value is “significant and consistent EAD-responses”. Moreover, the “activity at doses tested” value in test [3] (AA/2 MB) is “inactive”. Further, the “Mean/trap/visit ± SE Yellowjackets” value in test [4] (setting [7]) is listed as 36.2 ± 6.8 b wasps/trap/visit.

With E/Z-nepetalactone [EZ-Neptalactone], the “Mean/trap/visit ± SE Paper wasps” value in test [1] (setting [10]) worked out at 3.2 ± 1.1 bc wasps/trap/visit. In addition, the “repellency on either yellowjackets or paper wasps or both to the attractant AA/2 MB” value in test [3] is listed as “partially significant repellency”. Moreover, the “Mean/trap/visit ± SE Yellowjackets” value in test [4] (setting [10]) is 11.2 ± 3.6 b wasps/trap/visit.

Consider Z/E-nepetalactone [ZE-Neptalactone], for which, in test [1] (setting [10]), the “Mean/trap/visit ± SE Paper wasps” value came to 11.3 ± 4.5 c wasps/trap/visit. In addition, the “repellency on either yellowjackets or paper wasps or both to the attractant AA/2 MB” value in test [3] is given as “partially significant repellency”. Besides, in test [4] (setting [10]), the “Mean/trap/visit ± SE Yellowjackets” value is on record as 52.1 ± 16.2 cd wasps/trap/visit.

As to α/β-thujone, in test [1] (setting [8]), the “Mean/trap/visit ± SE Paper wasps” value amounted to 0.2 ± 0.1 a wasps/trap/visit. In test [2] (setting [6]), the “antennal (EAD) response to component of sage oil” value is “strong and repeatable antennal responses”. The “Mean/trap/visit ± SE Yellowjackets” value in test [4] (setting [8]) is given as 4.9 ± 1.6 ab wasps/trap/visit.
